Test results from PMC12799587, “Predicting compounds that interact with the 2 known agonist-induced conformations of the human β1-adrenoceptor” (Molecular Pharmacology, 2025).
Where “and” joins values, the source holds several entries; their conditions need not be identical. Equal entries are not always repeated.

Tests used:
human β2-AR [1] = biological target: T1, human β2-AR (Homo sapiens, UniProt P07550); experiment: 3H-CGP12177 whole-cell binding in CHO-β2-CRE-SPAP cells; conditions: for β2-Selectivity: β2 over β1 affinity from whole-cell binding
Experimental: (§6) Briefly, cells were grown to confluence in tissue-culture-treated white-sided 96-well view plates. […] A white bottom was applied to convert the wells to white-bottomed, white-sided wells, 100 μL Microscint 20 was then added to each well, and a clear sealant top was applied. The plates left for at least 8 hours in the dark before being counted on a Topcount for 2 minutes per well.

human β2-AR [2] = biological target: T1, human β2-AR; experiment: CRE-SPAP production in CHO-β2-CRE-SPAP cells; format: cell-based; set-up: expressed in transfected cells; host or cells: CHO-K1 clonal line (CHO-β2-CRE-SPAP); conditions: for EC50 / Log EC50: agonist action; for % Isoprenaline: response compared with 10 μM isoprenaline; for Log ratio of affinities: cimaterol vs CGP12177 as agonist
Experimental: (§1) Many agonist responses were best described by a one-site sigmoidal agonist concentration-response curve.
(§2) In experiments where 3 different fixed concentrations of the same antagonist were used, Schild plots were constructed using equation (6):(6) logDR-1=logB-logKD
(§3) These points were then fitted to a straight line. A slope of 1 then indicates competitive antagonism.[39]
(§4) Where clear partial agonism was present (eg, Fig. 3D), the partial agonist affinity was calculated by the method of Stephenson[40] using equation 7.
(§5) (7) KDpartialagonist=Y×P/1-YwhereY=A2-A1/A3 where [P] is the concentration of the partial agonist, [A1] is the concentration of the agonist at the point where the fixed partial agonist causes the same response, [A2] is the concentration of agonist causing a given response above that achieved by the partial agonist, and [A3] is the concentration of the agonist, in the presence of the partial agonist, causing the same stimulation as [A2].

β1-AR [3] = biological target: T2, β1-AR (Homo sapiens, UniProt P08588); experiment: CRE-luciferase production in CHO-β1-CRE-luciferase cells; conditions: for EC50: Log EC50, agonist action; for EC50 / Log EC50: given as log EC50 (negative); for Log ratio of affinities: catecholamine vs secondary conformation; for % isop: response compared to 10 μM isoprenaline; for Log KD Secondary Conformation, CGP12177 as agonist: rightward shift of CGP12177 response; for Log EC50: agonist action
β1-AR [4] = biological target: T2, β1-AR; experiment: Summary of pharmacological outcome at the β1-AR (CHO-β1-luciferase or CHO-β1-SPAP cells); conditions: for Evidence of SCE activation: evidence A–D as outlined in the Introduction, CHO-β1-luciferase or CHO-β1-SPAP cells; for Pharmacological Outcome: CCE/IBS conformation / Pharmacological Outcome: SCE conformation: β1-AR, summary
Experimental: Briefly, at 24 hours, the media was removed and 100 μL sfm added to each well (to serum starve the cells) for a second 24 hours before experimentation.

β1-AR [5] = biological target: T2, β1-AR; experiment: 3H-CGP12177 whole-cell binding in CHO-β1-CRE-SPAP cells
Experimental: as §6

β1-AR [6] = biological target: T2, β1-AR; experiment: CRE-SPAP production in CHO-β1-CRE-SPAP cells; format: cell-based; set-up: expressed in transfected cells; host or cells: CHO-K1 clonal lines (CHO-β1-CRE-luc, CHO-β1-CRE-SPAP); conditions: for EC50 / Log EC50: agonist action; for EC50 / % Isoprenaline / Log EC50 / Log KD Secondary Conformation, CGP12177 as agonist / Log KD Catecholamine conformation Cimaterol as Agonist: CHO-β1-CRE-SPAP cells; for EC50: read-out: Log EC50 (converted); for % Isoprenaline: response compared with 10 μM isoprenaline; for Log KD Secondary Conformation, CGP12177 as agonist: rightward shift of CGP12177 response; for Log KD Catecholamine conformation Cimaterol as Agonist: rightward shift of cimaterol response, Gaddum, or Stephenson (a)
Experimental: as §1, §2, §3, §4, §5
where N is the percentage of site 1, [A] is the concentration of agonist, and EC1_50 and EC2_50 are the respective EC50 values for the 2 agonist sites.

[7] = CHO-β1-CRE-luciferase cells, Gaddum, or Stephenson for partial agonists (a)
[8] = Log KD (CGP12177 as Agonist), rightward shift of CGP12177 response
[9] = Log KD (Cimaterol as Agonist), rightward shift of cimaterol response, Gaddum, or Stephenson (a)
[10] = rightward shift of CGP12177 response

T1 sequence (P07550 whole entry): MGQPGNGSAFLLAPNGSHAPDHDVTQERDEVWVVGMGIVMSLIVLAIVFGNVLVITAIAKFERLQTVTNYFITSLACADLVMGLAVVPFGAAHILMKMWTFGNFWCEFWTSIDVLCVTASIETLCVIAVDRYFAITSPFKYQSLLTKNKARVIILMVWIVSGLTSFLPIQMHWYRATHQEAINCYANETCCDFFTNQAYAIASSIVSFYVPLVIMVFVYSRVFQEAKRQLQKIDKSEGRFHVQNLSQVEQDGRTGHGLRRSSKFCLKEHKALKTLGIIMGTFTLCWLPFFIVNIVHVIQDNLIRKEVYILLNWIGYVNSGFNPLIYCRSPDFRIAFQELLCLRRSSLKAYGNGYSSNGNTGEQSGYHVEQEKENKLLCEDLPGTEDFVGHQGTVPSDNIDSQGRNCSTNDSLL
T2 sequence (P08588 whole entry): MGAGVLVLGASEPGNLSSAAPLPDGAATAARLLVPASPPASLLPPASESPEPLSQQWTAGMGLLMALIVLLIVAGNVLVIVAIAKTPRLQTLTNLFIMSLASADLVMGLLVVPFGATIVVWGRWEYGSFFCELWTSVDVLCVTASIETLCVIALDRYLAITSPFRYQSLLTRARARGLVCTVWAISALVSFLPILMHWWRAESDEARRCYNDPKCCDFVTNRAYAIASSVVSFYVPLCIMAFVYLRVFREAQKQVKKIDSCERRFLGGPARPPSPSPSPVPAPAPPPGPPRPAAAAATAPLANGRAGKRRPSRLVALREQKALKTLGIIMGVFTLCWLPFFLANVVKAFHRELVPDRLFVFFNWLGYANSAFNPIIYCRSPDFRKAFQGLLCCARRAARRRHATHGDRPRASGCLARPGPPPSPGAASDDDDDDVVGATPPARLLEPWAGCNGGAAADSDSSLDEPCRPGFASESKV

SMILES | Kd (human β2-AR [1]) | β2-Selectivity (human β2-AR [1]) | EC50 (human β2-AR [2]) | % Isoprenaline (human β2-AR [2]) | EC50 (β1-AR [3]; CHO-β1-CRE-luciferase cells) | Log ratio of affinities (β1-AR [3]; CHO-β1-CRE-luciferase cells) | % isop (β1-AR [3]; CHO-β1-CRE-luciferase cells) | Log KD Secondary Conformation, CGP12177 as agonist (β1-AR [3]; [7]) | Evidence of SCE activation (β1-AR [4]) | Pharmacological Outcome: CCE/IBS conformation (β1-AR [4]) | Kd (β1-AR [5]) | EC50 (β1-AR [6]) | % Isoprenaline (β1-AR [6]) | Kd (human β2-AR [2]; [9]) | Log EC50 (human β2-AR [2]) | Log KD (CGP12177 as Agonist) (human β2-AR [2]; [10]) | Log EC50 (β1-AR [3]; CHO-β1-CRE-luciferase cells) | Pharmacological Outcome: SCE conformation (β1-AR [4]) | Log EC50 (β1-AR [6]) | Log KD Secondary Conformation, CGP12177 as agonist (β1-AR [6]) | other results
COc1ccccc1OC[C@@H](O)CNC(C)C [VL05, (2S)-1-(2-methoxyphenoxy)-3-(propan-2-ylamino)propan-2-ol] | 12.3 nM | 1.9 fold | 3.8 nM | 63.2 ± 3.2% | 64.6 nM | >3 | 9.7 ± 0.8% | No shift 10 μM | None | Agonist | 24 nM | 5.01 nM | 62.3 ± 3.8% |  |  |  |  |  |  |  | Kd (β1-AR [3]): 10 nM
COc1ccc(OCC(O)CNCCc2c[nH]c3ccccc23)cc1 (stereo not drawn) [VL06, 1-[2-(1H -indol-3-yl)ethylamino]-3-(4-methoxyphenoxy)propan-2-ol] | 977 nM | 1.1 fold | 363 nM | 15.2 ± 1.2% | 1410 nM | >1.46 | 2.7 ± 0.8% | No shift 10 μM | None | Agonist | 1120 nM | 339 nM | 53.6 ± 3.1% | 457 nM |  |  |  |  |  |  | Kd (human β2-AR [2]; [8]): 1170 nM; Log ratio of affinities (human β2-AR [2]): 0.41; Kd (β1-AR [3]): 347 nM
Cc1cc(C)c(OC[C@@H](O)CNC(C)C)c(C)c1 [VL08, (2S)-1-(propan-2-ylamino)-3-(2,4,6-trimethylphenoxy)propan-2-ol] | 3240 nM |  |  |  |  |  |  | No shift 10 μM | None | No receptor interaction |  |  |  | 2090 nM | No response | No shift 10 μM | No response | No receptor interaction | No response | No shift 10 μM | Log KD Catecholamine conformation Cimaterol as Agonist (β1-AR [6]): No shift 10 μM
O[C@H](CNCCc1c[nH]c2ccccc12)COc1ccc(F)cc1 [VL10, (2R)-1-(4-fluorophenoxy)-3-[2-(1H -indol-3-yl)ethylamino]propan-2-ol] | 89.1 nM | 2.1 fold | 39.8 nM | 28.7 ± 2.0% | 155 nM | 1.64 | 14% and 13.8 ± 1.5% |  | None | Agonist | 186 nM | 18.6 nM | 67% and 66.9 ± 2.5% | 37.2 nM |  |  |  |  |  |  | Kd (human β2-AR [2]; [8]): 138 nM; Log ratio of affinities (human β2-AR [2]): 0.57; Kd (β1-AR [6]): 117 nM

Further molecules by falling Kd (human β2-AR [1]), results first:

Kd (human β2-AR [1]) | β2-Selectivity (human β2-AR [1]) | EC50 (human β2-AR [2]) | % Isoprenaline (human β2-AR [2]) | EC50 (β1-AR [3]; CHO-β1-CRE-luciferase cells) | Log ratio of affinities (β1-AR [3]; CHO-β1-CRE-luciferase cells) | % isop (β1-AR [3]; CHO-β1-CRE-luciferase cells) | Log KD Secondary Conformation, CGP12177 as agonist (β1-AR [3]; [7]) | Evidence of SCE activation (β1-AR [4]) | Pharmacological Outcome: CCE/IBS conformation (β1-AR [4]) | Kd (β1-AR [5]) | EC50 (β1-AR [6]) | % Isoprenaline (β1-AR [6]) | Kd (human β2-AR [2]; [9]) | Log EC50 (human β2-AR [2]) | Log KD (CGP12177 as Agonist) (human β2-AR [2]; [10]) | Log EC50 (β1-AR [3]; CHO-β1-CRE-luciferase cells) | Pharmacological Outcome: SCE conformation (β1-AR [4]) | Log EC50 (β1-AR [6]) | Log KD Secondary Conformation, CGP12177 as agonist (β1-AR [6]) | SMILES | other results
8910 nM |  |  |  |  |  |  | No shift 10 μM | None | No receptor interaction |  |  |  |  | No response | No shift 10 μM | No response | No receptor interaction | No response | No shift 10 μM | OCCOc1ccc(CNCCc2c[nH]c3ccccc23)cc1 [VL11, 2-[4-[[2-(1H -indol-3-yl)ethylamino]methyl]phenoxy]ethanol] | Log KD (Cimaterol as Agonist) (human β2-AR [2]; rightward shift of cimaterol response, Gaddum, or Stephenson (a)): No shift 10 μM; Log KD Catecholamine conformation Cimaterol as Agonist (β1-AR [6]): No shift 10 μM
6760 nM |  |  |  |  |  |  | No shift 10 μM | None | No receptor interaction |  |  |  | 3720 nM | No response | No shift 10 μM | No response | No receptor interaction | No response | No shift 10 μM | C=CCc1ccccc1OCCNCCCOC [VL12, 3-methoxy-N -[2-(2-prop-2-enylphenoxy)ethyl]propan-1-amine] | Log KD Catecholamine conformation Cimaterol as Agonist (β1-AR [3]; rightward shift of cimaterol response, CHO-β1-CRE-luciferase cells, Gaddum, or Stephenson for partial agonists (a)): No shift at 10 μM; Log KD Catecholamine conformation Cimaterol as Agonist (β1-AR [6]): No shift 10 μM
